Data reported in publication PMC9644403, “L-type Amino Acid Transporter 1 Utilizing Ferulic Acid Derivatives Show Increased Drug Delivery in the Mouse Pancreas Along with Decreased Lipid Peroxidation and Prostaglandin Production” (Molecular Pharmaceutics, 2022).
Like-named read-outs stand apart in the source and are kept apart here.

Key:
[1] = Non-specific binding in S9 fractions of mouse liver, kidney and pancreas homogenates, rapid equilibrium dialysis; format: in vitro ADME; conditions: for fraction unbound at 4 h, 50 μM: pH 7.4, 37 °C, mean ± SD (n = 3); for unbound (free) portion, range over liver, kidney and pancreas: range over the studied mouse tissues
Description: The unbound fractions of FA, D1, and D2 were determined in the S9 subcellular fractions of the mouse liver, kidneys, and pancreas using rapid equilibrium dialysis (RED) plates (Thermo Fisher Scientific, Inc., Waltham, MA, USA). Briefly, the studied compounds were spiked at a 50 μM concentration into 100 μL of mouse homogenate S9 subcellular fraction and transferred to the reaction chamber. Homogenate dilutions were 1:4 (w/v) for the liver and kidney, and 1:20 (w/v) for the pancreas. A total of 350 μL of TBS (pH 7.4) buffer was added to the buffer chamber of the RED plate. The dialysis plate was incubated at 37 °C with shaking for 4 h. Samples of 50 μL were collected from both the reaction and buffer chambers, and equal amounts of buffer and S9 fraction were added to the collected samples, respectively, to yield identical sample matrices. The proteins were precipitated by diluting samples with 100 μL of ice-cold acetonitrile. Samples were centrifuged at 12 000 × g for 10 min, and the supernatants were collected for HPLC analysis.
The unbound fraction (fu,tissue) of the FA and its derivatives was calculated using eq 1 [drawing 1] 1 where D is the dilution factor of studied tissue homogenate, and fu,homogenate is the distribution ratio of the studied compound measured in the reaction and buffer chambers within the equilibrium dialysis assay.[29]

[2] = In vivo pharmacokinetics in mouse pancreas, liver and kidney after i.p. bolus; conditions: 25 μmol/kg i.p.; for Cmax kidney / Cmax liver / Cmax pancreas / AUCtotal kidney / AUCtotal liver / AUCtotal pancreas / Kp / half-life / Kp,uu (unbound tissue-to-plasma AUC ratio) / Tmax / AUCu, kidney / AUCu, liver / AUCu, pancreas / Cmax, u kidney / Cmax, u liver / Cmax, u pancreas: mice; for AUCtotal kidney / AUCtotal liver / AUCtotal pancreas: n = 3; for pancreas AUC, times higher in comparison to the original FA: mouse pancreas; for Kp / half-life / Kp,uu (unbound tissue-to-plasma AUC ratio) / Tmax: mouse, ip, 25 umol/kg; for Kp: tissue/plasma partition coefficient (eq 2); for half-life: elimination half-life; for AUCu, kidney / AUCu, liver / AUCu, pancreas: unbound (eq 3); for Cmax, u kidney / Cmax, u liver / Cmax, u pancreas: unbound
Description: The pharmacokinetic study of FA, D1, and D2 was performed as previously described,[17] in which the pharmacokinetic parameters for the plasma and brain have been reported. Briefly, the studied compounds were dissolved in a vehicle containing 0.9% (w/v) NaCl in water, and a dose of 25 μmol/kg of the FA, D1, or D2 (n = 3 per compound at each time point) was administered as a bolus intraperitoneal (i.p.) injection for mice. The mice were anesthetized using a mixture of ketamine (140 mg/kg) and xylazine (8 mg/kg) and sacrificed by decapitation at selected time points between 10 and 360 min. The kidney, liver, and pancreas were rapidly collected, snap-frozen on dry ice, and stored at −80 °C until analyzed.
The frozen tissues were weighed and homogenized with ultrapure water (1:3 w/v) by sonicating twice for 5 s with the SoniPrep 150 Plus disintegrator (MSE Ltd., London, UK). The proteins were precipitated by diluting homogenate 1:3 (v/v) with acetonitrile containing the internal standards—chlorzoxazone for FA and diclofenac for derivatives. Samples were then centrifuged at 14 000 × g for 10 min at 4 °C. Supernatants were collected and diluted further 1:1 with ultrapure water and transferred into HPLC vials for the analysis by liquid chromatography-tandem mass spectrometry (LC–MS/MS).
Drug concentrations were analyzed using the LC–MS/MS method described previously,[17] with minor changes. Briefly, the analysis was carried out with an Agilent 1200 Series Rapid Resolution LC System with an Agilent Zorbax XBD-C18 rapid resolution high-throughput (RRHT) column (50 mm × 4.6 mm, 1.8 μm) and an Agilent 6410 triple quadrupole mass spectrometer equipped with an electrospray ionization source (Agilent Technologies, Palo Alto, CA, USA). The LC eluents were water (eluent A) and acetonitrile (eluent B), both containing 0.1% (v/v) formic acid. FA was separated with the following gradient: 0–1 min: 5% B, 1–2 min: 5% B → 90%, 2–4 min: 90% B, 4–4.1 min: 90% B → 5%, and 4.1–7 min: 5% B. For the derivatives, the gradient was as follows: 0–1 min: 10% B, 1–2 min: 10% B → 90%, 2–5 min: 90% B, 5–5.1 min: 90% B → 10%, and 5.1–8 min: 10% B. In both methods, the LC flow rate was 0.3 mL/min, the column temperature was set to 40 °C, and the sample injection volume was 5 μL.
The LC–MS/MS data acquisition for the FA was performed in a negative ion mode with the following conditions: drying gas flow 6.5 l/min with the temperature of 300 °C, nebulizer gas pressure of 20 psi, and capillary voltage of 4 000 V. MRM transitions were 193 → 149 for FA and 168 → 132 for chlorzoxazone. Fragmentor voltages were 100 and 120 V, respectively, and the collision energy was 20 V for both. For D1 and D2, the analysis was performed in a positive ion mode with the following conditions: drying gas flow of 6.5 l/min with the temperature of 300 °C, nebulizer gas pressure of 20 psi, and capillary voltage of 3 000 V. MRM transitions were 371 → 176.8 for D1, 357 → 310.9 for D2, and 296 → 250 for the diclofenac. The fragmentor voltages were 60, 40, and 100 V, and the collision energies were 16, 8, and 10 V, respectively. The data acquisition software was Agilent MassHunter Workstation software (version B.03.01), whereas Quantitative Analysis (B.09.00) software was used for data processing and analysis. The lower limit of quantification for the FA was 0.05 nmol/g and was 0.01 nmol/g for derivatives. The methods were linear, selective, accurate, and precise in the calibration range of 0.05–300 nmol/g for FA and 0.01–300 nmol/g for derivatives.
The time–concentration profiles for studied drugs were calculated using GraphPad Prism v. 5.03 software (GraphPad Software, San Diego, CA, USA). The area under curve (AUC) was calculated using the linear trapezoidal method, providing simultaneously the numeric pharmacokinetic parameters, such as tmax and Cmax. The half-life of elimination (t1/2β) was calculated from a logarithmic slope based on at least the last three detected timepoints. […]

[3] = S9 subcellular fraction of kidney homogenate, mouse kidney S9, 50 μM, read-out: fu, kidney (%)
[4] = S9 subcellular fraction of liver homogenate, mouse liver S9, 50 μM, read-out: fu, liver (%)
[5] = S9 subcellular fraction of pancreas homogenate, mouse pancreas S9, 50 μM, read-out: fu, pancreas (%)
[6] = kidney, read-out: t1/2β, kidney
[7] = kidney, read-out: AUCu, kidney/AUCu plasma
[8] = kidney, read-out: tmax kidney (converted)
[9] = liver, read-out: AUCu, liver/AUCu plasma
[10] = liver, read-out: tmax liver (converted)
[11] = pancreas, read-out: Kp, pancreas
[12] = pancreas, read-out: t1/2β, pancreas
[13] = pancreas, read-out: AUCu, pancreas/AUCu plasma
[14] = pancreas, read-out: tmax pancreas (converted)

In the case of `COc1cc(C=CC(=O)NCc2cccc(CC(N)C(=O)O)c2)ccc1O` (stereo not shown) [derivative 1], the fraction unbound at 4 h, 50 μM [1, 3] is reported as 0.469 ± 0.0593, the fraction unbound at 4 h, 50 μM [1, 4] is reported as 0.425 ± 0.0544 and the fraction unbound at 4 h, 50 μM [1, 5] is reported as 0.28 ± 0.0147. For the same compound, the “unbound (free) portion, range over liver, kidney and pancreas” value (“unbound (free) portion, range over liver” below) [1] was 28.02–46.85%, the Cmax kidney [2] was 20.4 nmol/g and the Cmax liver [2] was 44.3 nmol/g. The Cmax pancreas [2] was 168 nmol/g, the AUCtotal kidney [2] was 415 nmol·min/g and the AUCtotal liver [2] was 1 769 nmol/g × min. The AUCtotal pancreas [2] was 5 182 nmol/g × min, the “pancreas AUC, times higher in comparison to the original FA” value [2] was 129.2 times and the Kp ([2]; kidney, read-out: Kp, kidney) was 0.4. The half-life [2, 6] was 11.8 min, the Kp,uu (unbound tissue-to-plasma AUC ratio) [2, 7] was 0.74 and the Tmax [2, 8] was 10 min. It also gave a Kp ([2]; liver, read-out: Kp, liver) of 1.7, a half-life ([2]; liver, read-out: t1/2β, liver) of 11.7 min and a Kp,uu (unbound tissue-to-plasma AUC ratio) [2, 9] of 2.9. It also gave a Tmax [2, 10] of 10 min, a Kp [2, 11] of 4.97 and a half-life [2, 12] of 9.9 min. For the same compound, the Kp,uu (unbound tissue-to-plasma AUC ratio) [2, 13] was 5.54, the Tmax [2, 14] was 10 min and the “AUCu, kidney” value [2] was 194 nmol·min/g. The “AUCu, liver” value [2] was 752 nmol·min/g, the “AUCu, pancreas” value [2] was 1 452 nmol/g × min and the “Cmax, u kidney” value [2] was 9.6 nmol/g. The “Cmax, u liver” value [2] was 18.8 nmol/g and the “Cmax, u pancreas” value [2] was 47.1 nmol/g.

With `COc1cc(C=CC(=O)O)ccc1O` [ferulic acid, 4-hydroxy-3-methoxycinnamic acid] the fraction unbound at 4 h, 50 μM [1, 3] was 0.991 ± 0.105, the fraction unbound at 4 h, 50 μM [1, 4] was 0.849 ± 0.145 and the fraction unbound at 4 h, 50 μM [1, 5] was 0.993 ± 0.0196. For the same compound, the “unbound (free) portion, range over liver” value [1] was 84.94–99.30%, the Cmax kidney [2] was 14.4 nmol/g and the Cmax liver [2] was 18.0 nmol/g. It also gave a Cmax pancreas [2] of 5.4 nmol/g, an AUCtotal kidney [2] of 140 nmol·min/g and an AUCtotal liver [2] of 408 nmol·min/g. For the same compound, the AUCtotal pancreas [2] was 40.1 nmol·min/g, the Kp ([2]; kidney, read-out: Kp, kidney) was 0.24 and the half-life [2, 6] was 3.4 min. For the same compound, the Kp,uu (unbound tissue-to-plasma AUC ratio) [2, 7] was 2.21, the Tmax [2, 8] was 10 min and the Kp ([2]; liver, read-out: Kp, liver) was 0.69. For the same compound, the half-life ([2]; liver, read-out: t1/2β, liver) was 11.2 min, the Kp,uu (unbound tissue-to-plasma AUC ratio) [2, 9] was 5.5 and the Tmax [2, 10] was 10 min. It also gave a Kp [2, 11] of 0.07, a Kp,uu (unbound tissue-to-plasma AUC ratio) [2, 13] of 0.64 and a Tmax [2, 14] of 10 min. For the same compound, the “AUCu, kidney” value [2] was 139 nmol·min/g, the “AUCu, liver” value [2] was 347 nmol·min/g and the “AUCu, pancreas” value [2] was 40.1 nmol·min/g. The “Cmax, u kidney” value [2] was 14.3 nmol/g, the “Cmax, u liver” value [2] was 15.3 nmol/g and the “Cmax, u pancreas” value [2] was 5.4 nmol/g.

For `COc1cc(/C=C/C(=O)Nc2cccc(C[C@H](N)C(=O)O)c2)ccc1O` [derivative 2], the fraction unbound at 4 h, 50 μM [1, 3] was 0.305 ± 0.0063, the fraction unbound at 4 h, 50 μM [1, 4] was 0.236 ± 0.0109 and the fraction unbound at 4 h, 50 μM [1, 5] was 0.15 ± 0.0206. For the same compound, the “unbound (free) portion, range over liver” value [1] was 15.01–30.52%, the Cmax kidney [2] was 196 nmol/g and the Cmax liver [2] was 66.4 nmol/g. The Cmax pancreas [2] was 253 nmol/g, the AUCtotal kidney [2] was 3 368 nmol/g × min and the AUCtotal liver [2] was 2 100 nmol/g × min. For the same compound, the AUCtotal pancreas [2] was 8 172 nmol/g × min, the “pancreas AUC, times higher in comparison to the original FA” value [2] was 203.8 times and the Kp ([2]; kidney, read-out: Kp, kidney) was 7.27. It also gave a half-life [2, 6] of 8 min, a Kp,uu (unbound tissue-to-plasma AUC ratio) [2, 7] of 25.7 and a Tmax [2, 8] of 10 min. It also gave a Kp ([2]; liver, read-out: Kp, liver) of 4.54, a half-life ([2]; liver, read-out: t1/2β, liver) of 13.1 min and a Kp,uu (unbound tissue-to-plasma AUC ratio) [2, 9] of 12.4. It also gave a Tmax [2, 10] of 10 min, a Kp [2, 11] of 17.6 and a half-life [2, 12] of 33.8 min. For the same compound, the Kp,uu (unbound tissue-to-plasma AUC ratio) [2, 13] was 30.6, the Tmax [2, 14] was 30 min and the “AUCu, kidney” value [2] was 1 028 nmol/g × min. The “AUCu, liver” value [2] was 496 nmol·min/g, the “AUCu, pancreas” value [2] was 1 226 nmol/g × min and the “Cmax, u kidney” value [2] was 59.8 nmol/g. For the same compound, the “Cmax, u liver” value [2] was 15.7 nmol/g and the “Cmax, u pancreas” value [2] was 38.0 nmol/g.
